Data: PMC9656955, “The Novel Class IIa Selective Histone Deacetylase Inhibitor YAK540 Is Synergistic with Bortezomib in Leukemia Cell Lines” (International Journal of Molecular Sciences, 2022)

Experiments:
Assay type in all cases: biochemical
HDAC 8 = molecular target: T1, HDAC 8 (Homo sapiens, UniProt Q9BY41); assay: recombinant enzyme fluorogenic assay, Boc-Lys-(Tfa)-AMC substrate; conditions: recombinant hdac 8; read-out: YAK540 / IC50 (pIC50 ±SEM) (converted)
T1 construct: gene HDAC8
T1 sequence (Q9BY41 1-377): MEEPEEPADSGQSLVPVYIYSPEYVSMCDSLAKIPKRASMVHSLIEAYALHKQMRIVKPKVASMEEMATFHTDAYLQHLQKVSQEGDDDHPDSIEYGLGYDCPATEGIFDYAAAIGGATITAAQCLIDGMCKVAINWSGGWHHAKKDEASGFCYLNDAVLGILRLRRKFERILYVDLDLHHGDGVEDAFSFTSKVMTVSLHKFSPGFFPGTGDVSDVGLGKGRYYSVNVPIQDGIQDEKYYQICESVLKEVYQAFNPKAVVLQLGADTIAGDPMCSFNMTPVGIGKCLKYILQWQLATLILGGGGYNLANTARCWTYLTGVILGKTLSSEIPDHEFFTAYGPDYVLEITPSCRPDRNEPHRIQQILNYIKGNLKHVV

HDAC 6 = molecular target: T2, HDAC 6 (Homo sapiens, UniProt Q9UBN7); assay: recombinant enzyme fluorogenic assay, Boc-Lys(Ac)-AMC substrate; conditions: recombinant hdac 6; read-out: YAK540 / IC50 (pIC50 ±SEM) (converted)
T2 construct: gene HDAC6
T2 sequence (Q9UBN7 1-1215): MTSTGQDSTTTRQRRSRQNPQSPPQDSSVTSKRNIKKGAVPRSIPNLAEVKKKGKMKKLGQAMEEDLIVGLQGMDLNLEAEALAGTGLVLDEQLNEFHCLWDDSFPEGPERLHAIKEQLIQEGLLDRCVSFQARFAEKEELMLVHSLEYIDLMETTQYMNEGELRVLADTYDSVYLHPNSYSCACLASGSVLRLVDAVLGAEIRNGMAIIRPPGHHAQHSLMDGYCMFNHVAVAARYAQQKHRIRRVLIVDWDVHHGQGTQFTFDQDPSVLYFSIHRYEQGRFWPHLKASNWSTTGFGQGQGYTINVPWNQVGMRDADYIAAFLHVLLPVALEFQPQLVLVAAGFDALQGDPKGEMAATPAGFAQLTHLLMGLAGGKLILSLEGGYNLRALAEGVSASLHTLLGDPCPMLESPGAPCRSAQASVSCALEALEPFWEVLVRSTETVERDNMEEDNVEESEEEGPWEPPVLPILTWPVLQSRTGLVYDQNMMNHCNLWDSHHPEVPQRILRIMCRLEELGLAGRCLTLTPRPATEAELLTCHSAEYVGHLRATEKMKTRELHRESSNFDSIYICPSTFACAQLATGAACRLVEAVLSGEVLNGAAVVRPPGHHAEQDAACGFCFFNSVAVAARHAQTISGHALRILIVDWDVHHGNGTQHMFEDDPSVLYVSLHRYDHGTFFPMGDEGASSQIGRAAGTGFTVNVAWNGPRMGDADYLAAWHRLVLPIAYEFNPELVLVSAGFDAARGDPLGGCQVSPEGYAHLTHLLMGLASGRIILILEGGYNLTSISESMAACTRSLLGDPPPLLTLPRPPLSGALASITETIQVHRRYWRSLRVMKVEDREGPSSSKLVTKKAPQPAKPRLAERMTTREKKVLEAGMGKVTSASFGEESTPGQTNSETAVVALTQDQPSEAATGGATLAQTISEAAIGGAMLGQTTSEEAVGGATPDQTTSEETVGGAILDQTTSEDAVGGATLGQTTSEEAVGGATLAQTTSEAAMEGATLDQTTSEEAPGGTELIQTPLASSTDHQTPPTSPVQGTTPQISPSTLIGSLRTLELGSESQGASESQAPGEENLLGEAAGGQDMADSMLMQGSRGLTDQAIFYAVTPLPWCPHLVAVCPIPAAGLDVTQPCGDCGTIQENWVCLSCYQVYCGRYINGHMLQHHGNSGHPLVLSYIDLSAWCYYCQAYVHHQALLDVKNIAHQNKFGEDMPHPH

HDAC 2 = molecular target: T3, HDAC 2 (Homo sapiens, UniProt Q92769); assay: as above; conditions: recombinant hdac 2; read-out: YAK540 / IC50 (pIC50 ±SEM) (converted)
T3 construct: gene HDAC2
T3 sequence (Q92769 whole entry): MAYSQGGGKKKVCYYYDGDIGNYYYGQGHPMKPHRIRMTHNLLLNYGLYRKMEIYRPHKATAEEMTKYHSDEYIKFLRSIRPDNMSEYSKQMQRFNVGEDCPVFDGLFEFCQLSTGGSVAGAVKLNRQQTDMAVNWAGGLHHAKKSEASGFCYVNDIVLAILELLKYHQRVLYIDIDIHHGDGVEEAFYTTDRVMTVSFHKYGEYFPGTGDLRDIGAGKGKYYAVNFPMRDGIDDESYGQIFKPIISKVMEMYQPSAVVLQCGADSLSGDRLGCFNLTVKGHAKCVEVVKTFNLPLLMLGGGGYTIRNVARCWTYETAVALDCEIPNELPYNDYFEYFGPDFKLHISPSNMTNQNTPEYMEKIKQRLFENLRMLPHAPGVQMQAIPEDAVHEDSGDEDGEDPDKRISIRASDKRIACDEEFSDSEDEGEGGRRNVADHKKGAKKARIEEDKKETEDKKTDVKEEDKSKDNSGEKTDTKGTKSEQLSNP

HDAC 4 = molecular target: T4, HDAC 4 (Homo sapiens, UniProt P56524); assay: recombinant enzyme fluorogenic assay, Boc-Lys-(Tfa)-AMC substrate; conditions: recombinant hdac 4; read-out: YAK540 / IC50 (pIC50 ±SEM) (converted)
T4 construct: gene HDAC4
T4 sequence (P56524 whole entry): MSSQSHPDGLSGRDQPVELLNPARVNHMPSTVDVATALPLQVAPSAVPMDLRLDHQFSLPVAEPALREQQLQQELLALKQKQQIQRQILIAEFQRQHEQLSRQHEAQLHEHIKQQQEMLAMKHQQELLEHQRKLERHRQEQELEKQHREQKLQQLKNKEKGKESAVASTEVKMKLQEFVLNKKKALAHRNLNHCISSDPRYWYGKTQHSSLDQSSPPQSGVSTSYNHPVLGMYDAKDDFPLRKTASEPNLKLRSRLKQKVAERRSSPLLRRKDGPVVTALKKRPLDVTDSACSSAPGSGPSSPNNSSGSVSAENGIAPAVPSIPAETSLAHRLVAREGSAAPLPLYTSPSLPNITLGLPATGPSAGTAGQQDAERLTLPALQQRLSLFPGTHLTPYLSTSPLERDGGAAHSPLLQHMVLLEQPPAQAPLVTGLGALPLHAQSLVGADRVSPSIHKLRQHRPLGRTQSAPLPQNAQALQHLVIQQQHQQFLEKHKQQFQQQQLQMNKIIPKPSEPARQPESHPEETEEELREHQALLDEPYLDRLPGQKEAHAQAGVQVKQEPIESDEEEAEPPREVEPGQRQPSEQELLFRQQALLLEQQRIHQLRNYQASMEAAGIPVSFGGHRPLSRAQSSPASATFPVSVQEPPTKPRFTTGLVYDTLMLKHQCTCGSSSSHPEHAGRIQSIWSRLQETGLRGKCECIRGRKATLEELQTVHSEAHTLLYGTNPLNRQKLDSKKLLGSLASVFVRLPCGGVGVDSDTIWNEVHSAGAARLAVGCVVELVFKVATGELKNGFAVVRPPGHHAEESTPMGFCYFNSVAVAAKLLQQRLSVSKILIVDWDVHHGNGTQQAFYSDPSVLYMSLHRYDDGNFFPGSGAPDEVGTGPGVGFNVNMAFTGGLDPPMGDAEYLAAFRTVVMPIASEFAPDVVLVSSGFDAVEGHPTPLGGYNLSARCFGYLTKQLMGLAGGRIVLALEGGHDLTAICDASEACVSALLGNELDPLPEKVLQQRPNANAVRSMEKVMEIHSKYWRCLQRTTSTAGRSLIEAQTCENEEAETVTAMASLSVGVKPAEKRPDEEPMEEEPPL

IC50 (HDAC 8): 9.39 µM | IC50 (HDAC 6): 11.4 µM | IC50 (HDAC 2): 30.2 µM | IC50 (HDAC 4): 0.114 µM
SMILES: O=C(NOCCN1CCCCC1)c1ccc(-c2noc(C(F)(F)F)n2)cc1 [YAK540]
